From patent US9376470B2, “Polypeptide having angiogenesis-inducing activity and antibacterial activity, and use thereof for medical purposes” (FunPep Inc., priority 2008, dated 2016)
≈ marks a conversion by molar mass, not a printed value. Peptide text beside a SMILES is read from it.

Assays:
Format in all cases: cell-based
[1] = system: Pseudomonas aeruginosa ATCC27853; assay: Antibacterial activity, ATP assay (BacTiter-Glo); settings: for ATP (%) mean, Pseudomonas aeruginosa: Table 4-1, ATP assay concentration: peptides 10, TOB 1.0, CPFX 1.0, OX 0.5, MEPM 1.0 μg/ml; for antibacterial activity against Pseudomonas aeruginosa compared with AG30-5C: 10 μg/mL, ATP assay
Procedure: (§1) The antibacterial activity of the polypeptides was measured using an ATP assay method. That is, using BacTiter-Glo Microbial Cell Viability Assay kit available from PROMEGA, the antibacterial activity of the peptides was evaluated from the viability of bacteria. […] With respect to the strains, Staphylococcus aureus ATCC29213 (S. aureus ATCC29213) as Gram-positive bacteria, or, alternatively, Pseudomonas aeruginosa (P. aeruginosa ATCC27853) as Gram-negative bacteria, was used. The bacteria were cultured in media for 3 to 4 hours, and thereafter absorbances at A600 were measured. Bacterial suspensions were diluted with Mueller-Hinton broth (MHB) according to McFarland #0.5. Each strain was added so as to attain about 0.5−1×10^5 CFU/mL (final concentration) in terms of Escherichia coli. […] A solution to which the peptides were not added was considered as a negative control, and a solution to which tobramycin (TOB) was added was considered as a positive control. […] Relative values were calculated by comparison with the negative control, and these values were regarded as the viability. ATP (%) of the antibacterial activity was measured in the same manner as mentioned above, and the “minimum inhibitory concentration (MIC)” was measured as follows. MIC is the lowest concentration of an agent that may inhibit the growth of a bacterium. MIC is used as a parameter for the efficacy of an antibacterial agent, for the strength of bacterial sensitivity, or the like. The bacteria can grow (proliferate) when the concentration is not higher than MIC, and cannot grow when the concentration is higher than MIC. Its measurement is carried out according to a method defined as a standard method by Japanese Society of Chemotherapy or CLINICAL AND LABORATORY […] (CLSI), but, in this Example, its measurement was carried out by a broth microdilution method in accordance with “M100-S17/M7-A7” (Performance Standards for Antimicrobial Susceptibility Testing; Seventeenth Informational Supplement, Vol. 27 No. 1) published by CLSI on January, 2007. That is, sensitivity test of agents was carried out using a microtiter plate or test tubes. With respect to each strain, Escherichia coli: ATCC 25922 (Escherichia coli ATCC 25922), Pseudomonas aeruginosa: ATCC 27853 (Pseudomonas aeruginosa ATCC 27853), Staphylococcus aureus: ATCC29213 (Staphylococcus aureus ATCC29213), Klebsiella pneumoniae: JCM 1662 (Klebsiella pneumoniae JCM 1662), enterobacteria (1): JCM 1232 (Enterobacter cloacae JCM 1232), enterobacteria (2): JCM 1235 (Enterobacter aerogenes JCM 1235), and Staphylococcus epidermidis: JCM 2414 (Staphylococcus epidermidis JCM 2414), were used. […] As the concentrations of the agents in ATP assay, the concentrations as described in the Tables were used.

[2] = system: Staphylococcus epidermidis JCM 2414; assay: microbe, parasite or virus in culture; settings: 37° C., 20 hours; for MIC: Staphylococcus epidermidis, JCM2414
Procedure: (§2) ATP (%) of the antibacterial activity was measured in the same manner as mentioned above, and the “minimum inhibitory concentration (MIC)” was measured as follows. MIC is the lowest concentration of an agent that may inhibit the growth of a bacterium. MIC is used as a parameter for the efficacy of an antibacterial agent, for the strength of bacterial sensitivity, or the like. The bacteria can grow (proliferate) when the concentration is not higher than MIC, and cannot grow when the concentration is higher than MIC. […] (CLSI), but, in this Example, its measurement was carried out by a broth microdilution method in accordance with “M100-S17/M7-A7” (Performance Standards for Antimicrobial Susceptibility Testing; Seventeenth Informational Supplement, Vol. 27 No. 1) published by CLSI on January, 2007. That is, sensitivity test of agents was carried out using a microtiter plate or test tubes. The bacteria were cultured in the liquid media for 4 to 6 hours, and thereafter absorbances at A600 were measured. Bacterial suspensions were diluted with Mueller-Hinton broth (MHB) according to McFarland #0.5. Each strain was added so as to attain about 10^5 CFU/ml (final concentration). Each peptide was prepared to an optional concentration, and the solutions were serially diluted from the concentration. The polypeptide at each concentration stage was added to a microplate or test tubes, and the bacterial suspension was added thereto. […] The plate was incubated at 37° C. for 20 hours, the lowest concentration where bacterial growth was inhibited was regarded as the minimum inhibitory concentration. With respect to each strain, Escherichia coli: ATCC 25922 (Escherichia coli ATCC 25922), Pseudomonas aeruginosa: ATCC 27853 (Pseudomonas aeruginosa ATCC 27853), Staphylococcus aureus: ATCC29213 (Staphylococcus aureus ATCC29213), Klebsiella pneumoniae: JCM 1662 (Klebsiella pneumoniae JCM 1662), enterobacteria (1): JCM 1232 (Enterobacter cloacae JCM 1232), enterobacteria (2): JCM 1235 (Enterobacter aerogenes JCM 1235), and Staphylococcus epidermidis: JCM 2414 (Staphylococcus epidermidis JCM 2414), were used. […] As the concentrations of the agents in ATP assay, the concentrations as described in the Tables were used.

[3] = system: Staphylococcus aureus ATCC29213; assay: microbe, parasite or virus in culture; settings: 37° C., 20 hours
Procedure: as §2

[4] = system: Pseudomonas aeruginosa ATCC 27853; assay: microbe, parasite or virus in culture; settings: 37° C., 20 hours; for MIC: Pseudomonas aeruginosa, ATCC27853
Procedure: as §2

[5] = system: Staphylococcus aureus ATCC29213; assay: Antibacterial activity, ATP assay (BacTiter-Glo); settings: for ATP (%) mean, Staphylococcus aureus: Table 4-1, ATP assay concentration: peptides 10, TOB 1.0, OX 0.5 μg/ml; for antibacterial activity against Staphylococcus aureus compared with AG30-5C: 10 μg/mL, ATP assay
Procedure: as §1

[6] = Table 3, peptides 10 μg/mL, 3 hours, ATP relative to negative control

Row | SMILES | ATP (%) mean, Pseudomonas aeruginosa [1] | MIC [2] | MIC [3] | MIC [4] | ATP (%) mean, Staphylococcus aureus [5] | antibacterial activity against Staphylococcus aureus compared with AG30-5C [5] | MIC Staphylococcus epidermidis [2] | antibacterial activity against Pseudomonas aeruginosa compared with AG30-5C [1] | MIC Pseudomonas aeruginosa [4] | Viability (%) Pseudomonas aeruginosa [1, 6] | Viability (%) Staphylococcus aureus [5, 6]
1 | C[C@@H](O)[C@H]1C(=O)N2C(C(=O)O)=C(S[C@@H]3CN[C@H](C(=O)N(C)C)C3)[C@H](C)[C@H]12 [MEPM, meropenem, reference compound] | 20.2% | 0.125 µg/mL (≈ 0.326 µM) | 0.03 to 0.12 µg/mL (≈ 0.0782 to 0.313 µM) | 0.25 to 1 µg/mL (≈ 0.652 to 2.61 µM) |  |  |  |  |  |  | 
2 | Cc1onc(-c2ccccc2)c1C(=O)N[C@@H]1C(=O)N2[C@@H]1SC(C)(C)[C@@H]2C(=O)O [OX, oxacillin, reference compound] | 83.1% | 0.12 to 0.5 µg/mL (≈ 0.299 to 1.25 µM) | 0.12 to 0.5 µg/mL (≈ 0.299 to 1.25 µM) |  | 72.8% |  |  |  |  |  | 
3 | CC[C@H](C)[C@H](NC(=O)[C@H](CC(C)C)NC(=O)[C@H](CCCCN)NC(=O)[C@H](CC(C)C)NC(=O)[C@@H](N)CCSC)C(=O)N[C@@H](Cc1ccccc1)C(=O)N[C@@H](CC(C)C)C(=O)N[C@@H](Cc1c[nH]cn1)C(=O)N[C@@H](CCCNC(=N)N)C(=O)N[C@@H](CC(C)C)C(=O)N[C@@H](CCCCN)C(=O)N[C@@H](CCCNC(=N)N)C(=O)N[C@@H](CCSC)C(=O)N[C@@H](CCCNC(=N)N)C(=O)N[C@@H](CCCCN)C(=O)N[C@@H](CCCNC(=N)N)C(=O)N[C@@H](CC(C)C)C(=O)N[C@@H](CCCCN)C(=O)N[C@@H](CCCNC(=N)N)C(=O)N[C@@H](CCCCN)C(=O)O [SR-1] (H-MLKLIFLHRLKRMRKRLKRK-OH; N-terminus assumed) | 26.0% |  |  |  | 5.2% | higher antibacterial activity against Staphylococcus aureus than AG30-5C | 128< μg/mL |  |  |  | 
4 | CC(C)C[C@H](NC(=O)[C@H](CCCCN)NC(=O)[C@H](CCCNC(=N)N)NC(=O)[C@H](CCCCN)NC(=O)[C@H](CC(C)C)NC(=O)[C@H](CCCNC(=N)N)NC(=O)[C@H](CCCCN)NC(=O)[C@H](CCCNC(=N)N)NC(=O)[C@H](CC(C)C)NC(=O)[C@H](CCCNC(=N)N)NC(=O)[C@H](CCCNC(=N)N)NC(=O)[C@H](CCCCN)NC(=O)[C@H](CC(C)C)NC(=O)[C@H](CCCNC(=N)N)NC(=O)[C@H](Cc1c[nH]cn1)NC(=O)[C@H](CC(C)C)NC(=O)[C@H](Cc1ccccc1)NC(=O)[C@H](CCCNC(=N)N)NC(=O)[C@H](CC(C)C)NC(=O)[C@@H](N)CCC(=O)O)C(=O)N[C@@H](CCCNC(=N)N)C(N)=O [SR-2] (H-ELRFLHRLKRRLRKRLKRKLR-NH2; N-terminus assumed) | 1.0% |  |  |  | 4.4% | higher antibacterial activity against Staphylococcus aureus than AG30-5C |  | higher antibacterial activity against Pseudomonas aeruginosa than AG30-5C |  |  | 
5 | CSCC[C@H](NC(=O)[C@H](CCCNC(=N)N)NC(=O)[C@H](CCCCN)NC(=O)[C@H](CC(C)C)NC(=O)[C@H](CCCNC(=N)N)NC(=O)[C@H](Cc1c[nH]cn1)NC(=O)[C@H](CC(C)C)NC(=O)[C@H](Cc1ccccc1)NC(=O)[C@H](CCCNC(=N)N)NC(=O)[C@H](CC(C)C)NC(=O)[C@@H](N)CCC(=O)O)C(=O)N[C@@H](CCCNC(=N)N)C(=O)N[C@@H](CCCCN)C(=O)N[C@@H](CCCNC(=N)N)C(=O)N[C@@H](CC(C)C)C(=O)N[C@@H](CCCCN)C(=O)N[C@@H](CCCNC(=N)N)C(=O)N[C@@H](CCCCN)C(=O)N[C@@H](CC(C)C)C(=O)N[C@@H](CCCNC(=N)N)C(N)=O [SR-3] (H-ELRFLHRLKRMRKRLKRKLR-NH2; N-terminus assumed) | 3.3% |  |  |  | 3.5% | higher antibacterial activity against Staphylococcus aureus than AG30-5C |  | higher antibacterial activity against Pseudomonas aeruginosa than AG30-5C |  |  | 
6 | CC[C@H](C)[C@H](NC(=O)[C@H](CC(C)C)NC(=O)[C@@H](N)CCCCN)C(=O)N[C@@H](Cc1ccccc1)C(=O)N[C@@H](CC(C)C)C(=O)N[C@@H](Cc1c[nH]cn1)C(=O)N[C@@H](CCCNC(=N)N)C(=O)N[C@@H](CC(C)C)C(=O)N[C@@H](CCCCN)C(=O)N[C@@H](CCCNC(=N)N)C(=O)N[C@@H](CCSC)C(=O)N[C@@H](CCCNC(=N)N)C(=O)N[C@@H](CCCCN)C(=O)N[C@@H](CCCNC(=N)N)C(=O)N[C@@H](CC(C)C)C(=O)N[C@@H](CCCCN)C(=O)N[C@@H](CCCNC(=N)N)C(=O)N[C@@H](CCCCN)C(=O)N[C@@H](CC(C)C)C(=O)N[C@@H](CCCNC(=N)N)C(N)=O [SR-4] (H-KLIFLHRLKRMRKRLKRKLR-NH2; N-terminus assumed) | 9.8% |  |  |  | 1.0% | higher antibacterial activity against Staphylococcus aureus than AG30-5C |  |  |  |  | 
7 | CSCC[C@H](NC(=O)[C@H](CCCNC(=N)N)NC(=O)[C@@H](N)CCCCN)C(=O)N[C@@H](CCCNC(=N)N)C(=O)N[C@@H](CCCCN)C(=O)N[C@@H](CCCNC(=N)N)C(=O)N[C@@H](CC(C)C)C(=O)N[C@@H](CCCCN)C(=O)N[C@@H](CCCNC(=N)N)C(=O)N[C@@H](CCCCN)C(=O)N[C@@H](CC(C)C)C(=O)N[C@@H](CCCNC(=N)N)C(=O)N[C@@H](CC(C)C)C(=O)N[C@@H](Cc1c[nH]c2ccccc12)C(=O)N[C@@H](Cc1c[nH]cn1)C(=O)N[C@@H](CCCNC(=N)N)C(=O)N[C@@H](CCCCN)C(=O)N[C@@H](CCCNC(=N)N)C(=O)N[C@@H](Cc1ccc(O)cc1)C(=O)N[C@@H](CCCCN)C(=O)O [SR-5] (H-KRMRKRLKRKLRLWHRKRYK-OH; N-terminus assumed) | 16.4% |  |  |  | 24.2% |  |  |  | 128≦ μg/mL |  | 
8 | NC[C@H]1O[C@H](O[C@H]2[C@H](O)[C@@H](O[C@H]3O[C@H](CO)[C@@H](O)[C@H](N)[C@H]3O)[C@H](N)C[C@@H]2N)[C@H](N)C[C@@H]1O [TOB, tobramycin, reference compound] | 1.7% | 1 µg/mL (≈ 2.14 µM) | 0.12 to 1 µg/mL (≈ 0.257 to 2.14 µM) | 0.25 to 1 µg/mL (≈ 0.535 to 2.14 µM) | 3.1% |  |  |  |  | 1.8% | 3.5%
